Assay: Solubility profile (free acid in HCl/NaOH solution, supernatants assayed by HPLC)
Type: physicochemical
Experimental: A solubility profile for [1-(4-tert-butylbenzyl)-5-(3-methylphenyl)-1H-indol-3-yl](oxo)acetic acid was generated using the free acid in HCl/NaOH solution (See FIG. 3). Solutions were centrifuged after 24 hours equilibration (2 hours for pH<4 to avoid degradation) and the supernatants were assayed by HPLC.

Cc1cccc(-c2ccc3c(c2)c(C(=O)C(=O)O)cn3Cc2ccc(C(C)(C)C)cc2)c1 [[1-(4-tert-Butylbenzyl)-5-(3-methylphenyl)-1H-indol-3-yl](oxo)acetic acid]
pH-solubility profile (above pH 4 up to pH 8, free acid in HCl/NaOH, 24 hours equilibration): solubility increases with increasing pH
pH-solubility profile (above pH 8, precipitation of the sodium salt): solubility decreases
solubility (pH<4, the stomach condition, 2 hours equilibration): poor solubility
aqueous solubility (upon ionization in aqueous media): approximately 24 uG/mL

Source: patent publication US20080188543A1, “PHARMACEUTICAL COMPOSITIONS CONTAINING SUBSTITUTED INDOLE ACID DERIVATIVES AS INHIBITORS OF PLASMINOGEN ACTIVATOR INHIBITOR-1 (PAI-1)” (Wyeth, priority 2007, published 2008)
